{"source": "patent US9308260B2", "about": "“Anticonvulsive pharmaceutical compositions” (INSERM (INSTITUT NATIONAL DE LA SANTE ET DE LA RECHERCHE …, priority 2007, dated 2016)", "key": {"[1]": {"test": "Blood/plasma amino acid concentrations in vigabatrin-treated rats", "format": "in vivo, rat", "procedure": "(§1) As described previously (Duboc et al., 2004), Wistar rats Rj Wi IOPS Han and Balb c mice were purchased from Janvier Breeding Center (Le Genest St Isle, France) at 7 weeks. VGB was dissolved in 0.9% NaCl at a concentration of 125 mg/ml. It was administered at 40 mg (125 mg/ml, 0.32 ml) by daily intraperitoneal injection for 45 or 65 days and at 3 mg (60 mg/ml, 0.05 ml) to mice for 29 days (daily dose of about 200 mg/kg in rats and 150 mg/kg in mice). Vitamin B6 (active form) was administered at a dose of 1 mM/kg (solution 154.46 mg/ml) whereas taurine was provided in the drinking water at 0.1 mol/l.\nAfter 65 days of injection, rats were anesthetized for blood sampling. Anesthesia was induced as described above. Under anesthesia an indwelling catheter was placed in the carotid artery. This method allowed obtaining a single, large, good quality blood sample. A 1 mL blood sampling was taken for each rat in a heparinized blood sampler, immediately centrifuged and frozen at −80° C. Automated amino acid ion chromatography (Pasteur Cerba, France) was used for the quantitative determination of total and free amino acids in the samples.\n(§2) As described previously (Duboc, A., et al. Vigabatrin, the GABA-transaminase inhibitor, damages cone photoreceptors in rats. Annals of neurology Vol. 55, 695-705 (2004).), Wistar rats Rj Wi IOPS Han or BALB/c mice were purchased from Janvier (Le Genest-St-Isle, France) at between six and seven weeks of age. VGB dissolved in 0.9% NaCl was administered at 40 mg (125 mg/ml, 0.32 ml) to rats by daily intraperitoneal injection for 45 or 65 days and at 3 mg (60 mg/ml, 0.05 ml) to mice for 29 days. These daily doses (rats: 200 mg/kg; mice: 150 mg/kg) are in-line with those described for the treatment of epilepsy in animals (Andre, V., Ferrandon, A., Marescaux, C. & Nehlig, A. Vigabatrin protects against hippocampal damage but is not antiepileptogenic in the lithium-pilocarpine model of temporal lobe epilepsy. Epilepsy research Vol. 47, 99-117 (2001)) or in humans (adult patients: 1-6 mg/kg; children: 50-75 mg/kg; or infants: 100-400 mg/kg) (Chiron, C., Dumas, C., Jambaque, I., Mumford, J. & Dulac, O. Randomized trial comparing vigabatrin and hydrocortisone in infantile spasms due to tuberous sclerosis. Epilepsy research Vol. 26, 389-395 (1997); Lux, A. L., et al. The United Kingdom Infantile Spasms Study comparing vigabatrin with prednisolone or tetracosactide at 14 days: a multicentre, randomised controlled trial. Lancet Vol. 364, 1773-1778 (2004); Aicardi, J., Mumford, J. P., Dumas, C. & Wood, S. Vigabatrin as initial therapy for infantile spasms: a European retrospective survey. Sabril IS Investigator and Peer Review Groups. Epilepsia Vol. 37, 638-642 (1996)). Taurine supplementation was given in drinking water at a concentration of 0.1M. […]"}, "[2]": {"system": "Wistar rats", "test": "Retinal histology quantification in vigabatrin-treated rats", "format": "in vivo, rat", "procedure": "as §2, with “0.1M. Light intensity in the animal cages ranged between 125 and 130 lux for rats and between 70 and 85 lux for mice.” for “0.1M.”\n(§3) For quantification, vertical sections along the dorso-ventral axis were selected at the optic nerve. Following DAPI nuclear staining, the lengths of disorganised retinal areas were measured; GFAP immunostaining was used for detection and quantificationof retinal areas with reactive gliosis. […]"}, "[3]": {"system": "Wistar rats", "test": "Photopic electroretinogram (ERG) in vigabatrin-treated rats", "format": "in vivo, rat", "procedure": "as §1\n(§4) ERG were recorded as described previously after the last VGB injection (Duboc et al., 2004). Anesthesia was induced by an intramuscular injection of a solution containing ketamine (100 mg/kg) and xylazine (10 mg/kg). After 10 min adaptation to a 2.5 cdm^−2 light intensity, ten recordings were obtained with flash intensity of 10 cdsm^−2 at an interstimulus interval 30 s and subsequently averaged. These photopic ERG measurements were performed after 59 days in rats and 29 days in mice.\nAs described previously (Duboc, A., et al. Vigabatrin, the GABA-transaminase inhibitor, damages cone photoreceptors in rats. Annals of neurology Vol. 55, 695-705 (2004).), Wistar rats Rj Wi IOPS Han or BALB/c mice were purchased from Janvier (Le Genest-St-Isle, France) at between six and seven weeks of age. VGB dissolved in 0.9% NaCl was administered at 40 mg (125 mg/ml, 0.32 ml) to rats by daily intraperitoneal injection for 45 or 65 days and at 3 mg (60 mg/ml, 0.05 ml) to mice for 29 days. […]\nPhotopic ERGs were recorded after the last VGB injection, as described previously (Duboc, A., et al. Vigabatrin, the GABA-transaminase inhibitor, damages cone photoreceptors in rats. Annals of neurology Vol. 55, 695-705 (2004).). […]"}, "[4]": {"system": "BALB/c mice", "test": "Photopic electroretinogram (ERG) in vigabatrin-treated mice", "format": "in vivo, mouse", "conditions": "29 days", "procedure": "as §1, §4\n(§5) As described previously (Duboc, A., et al. Vigabatrin, the GABA-transaminase inhibitor, damages cone photoreceptors in rats. Annals of neurology Vol. 55, 695-705 (2004).), Wistar rats Rj Wi IOPS Han or BALB/c mice were purchased from Janvier (Le Genest-St-Isle, France) at between six and seven weeks of age. VGB dissolved in 0.9% NaCl was administered at 40 mg (125 mg/ml, 0.32 ml) to rats by daily intraperitoneal injection for 45 or 65 days and at 3 mg (60 mg/ml, 0.05 ml) to mice for 29 days. These daily doses (rats: 200 mg/kg; mice: 150 mg/kg) are in-line with those described for the treatment of epilepsy in animals (Andre, V., Ferrandon, A., Marescaux, C. & Nehlig, A. Vigabatrin protects against hippocampal damage but is not antiepileptogenic in the lithium-pilocarpine model of temporal lobe epilepsy. Epilepsy research Vol. 47, 99-117 (2001)) or in humans (adult patients: 1-6 mg/kg; children: 50-75 mg/kg; or infants: 100-400 mg/kg) (Chiron, C., Dumas, C., Jambaque, I., Mumford, J. & Dulac, O. Randomized trial comparing vigabatrin and hydrocortisone in infantile spasms due to tuberous sclerosis. Epilepsy research Vol. 26, 389-395 (1997); Lux, A. L., et al. The United Kingdom Infantile Spasms Study comparing vigabatrin with prednisolone or tetracosactide at 14 days: a multicentre, randomised controlled trial. Lancet Vol. 364, 1773-1778 (2004); Aicardi, J., Mumford, J. P., Dumas, C. & Wood, S. Vigabatrin as initial therapy for infantile spasms: a European retrospective survey. Sabril IS Investigator and Peer Review Groups. Epilepsia Vol. 37, 638-642 (1996)). Taurine supplementation was given in drinking water at a concentration of 0.1M. Light intensity in the animal cages ranged between 125 and 130 lux for rats and between 70 and 85 lux for mice.\nPhotopic ERGs were recorded after the last VGB injection, as described previously (Duboc, A., et al. Vigabatrin, the GABA-transaminase inhibitor, damages cone photoreceptors in rats. Annals of neurology Vol. 55, 695-705 (2004).). Anesthesia was induced by intraperitoneal injection (0.8 to 1.2 ml/kg) of a solution containing ketamine (40 mg/ml) and xylazine (4 mg/ml Rompum). Animals were light-adapted for 10 minutes with a background light of 25 cdm^−2. Light flashes were then applied on this background light; the light intensity of the flash was 10 cdsm^−2 for the mouse experiments and for the rats maintained in darkness (FIGS. 2, 6) or 25 cdsm^−2 for other experiments (FIGS. 3, 5). Ten recordings were averaged with an interstimulus interval of 30 s."}, "[5]": {"system": "BALB/c mice", "test": "Retinal histology quantification in vigabatrin-treated mice", "format": "in vivo, mouse", "procedure": "as §5\nEye cups were fixed overnight at 4° C. in 4% (wt/vol) paraformaldehyde in phosphate buffered saline (PBS; 0.01M, pH 7.4). The tissue was cryoprotected in successive solutions of PBS containing 10%, 20% and 30% sucrose at 4° C., oriented along the dorso-ventral axis and embedded in OCT (Labonord, Villeneuve d′Ascq, France). Retinal sections (8-10 μm thickness) were permeabilised for five minutes in PBS containing 0.1% Triton X-100 (Sigma, St. Louis, Mo.), rinsed, and incubated in PBS containing 1% bovine serum albumin (Eurobio, Les-Ulis, France), 0.1% Tween 20 (Sigma), and 0.1% sodium azide (Merck, Fontenay-Sous-Bois, France) for two hours at room temperature. The primary antibody added to the solution was incubated for two hours at room temperature. Polyclonal antibodies were directed against VGluT1 (1:2000, Chemicon), rabbit GFAP (1/400, Dako, USA) and mouse cone arrestin (Zhu, X., et al. Mouse cone arrestin expression pattern: light induced translocation in cone photoreceptors. Molecular vision Vol. 8, 462-471 (2002)) (Luminaire junior, LUMIj, 1:20,000). Monoclonal antibodies were directed against Goa (1:2000, Chemicon). Sections were rinsed and then incubated with the secondary antibody, goat anti-rabbit IgG or rabbit anti-mouse IgG conjugated to either Alexa TM594 or Alexa TM488 (1:500, Molecular Probes, Eugene, Oreg.) for two hours. […]\nas §3"}, "[6]": {"test": "Plasma taurine levels in infants with infantile spasms receiving VGB therapy", "format": "in vivo, human", "conditions": "for Taurine level: measured", "procedure": "Blood samples were collected in haemolysis tubes containing heparin (14 IU/ml) and centrifuged (2200 g, 15 min). Plasma amino-acid analysis was performed by ion-exchange chromatography with nihydrin detection using a JEOL AMINOTAC analyser.\nWe then evaluated whether these findings have any clinical relevance in patients with epilepsy. Plasma taurine levels were reviewed retrospectively in patients presenting infantile spasms, who had received VGB treatment for at least six months in Necker Hospitals for the last 3 years. Plasma amino-acid levels are routinely measured in patients with infantile spasms as part of their etiological work-up, particularly when brain RMI is negative. Data were available in six patients (Table 2 hereunder). […] For one of these two patients (patient 2), the taurine level was measured before starting a 15 month period of VGB therapy and this taurine level was normal. In patient 6, the taurine level was in the lower part of the normal range, but this measurement could have been overestimated by the delayed blood centrifugation. Thus, taurine levels seem to be decreased in VGB-treated epileptic infants."}, "[7]": {"conditions": "vigabatrin alone versus control, listed as Vigabatrin"}, "[8]": {"conditions": "vigabatrin alone versus control, listed as vigabatrin"}, "[9]": {"conditions": "VGB with taurine supplementation versus without, p<0.001"}, "[10]": {"conditions": "supplementation in addition to vigabatrin"}}, "note": "“Also recorded” adds a separate entry of the source."}
{"smiles": "C=CC(N)CCC(=O)O", "note": "(stereo not drawn) [VGB, 4-amino-5-hexenoic acid]", "values": [{"measurement": "Decrease of taurine level versus control animals", "setting": "[1]; VGB-treated rats, 65 days, p<0.05", "result": 67, "unit": "%"}, {"measurement": "Reduction of methionine concentration versus control animals", "setting": "[1]; VGB-treated rats, 65 days, significant", "result": 22, "unit": "%"}, {"measurement": "Reduction of glutamic acid concentration versus control animals", "setting": "[1]; VGB-treated rats, 65 days, statistically significant", "result": 56, "unit": "%"}, {"measurement": "GFAP immunostaining", "setting": "[2]; VGB alone", "result": "increase in GFAP immunostaining"}, {"measurement": "Photopic ERG amplitude", "setting": "[3]; [7]", "result": "decrease"}, {"measurement": "Photopic ERG amplitude", "setting": "[3]; [8]", "result": "decrease in amplitude"}, {"measurement": "Photopic ERG amplitude", "setting": "[4]; vigabatrin alone versus control", "result": "significantly lower photopic ERG amplitude than the control group"}, {"measurement": "Photopic ERG amplitude", "setting": "[4]; [7]", "result": "decrease"}, {"measurement": "Photopic ERG amplitude", "setting": "[4]; [8]", "result": "decrease in amplitude"}, {"measurement": "Sprouting of bipolar cell dendrites", "setting": "[5]; VGB alone", "result": "observed"}, {"measurement": "Density of cone outer and inner segments", "setting": "[5]; VGB alone versus control, p<0.001", "result": "lower densities"}, {"measurement": "Taurine level", "setting": "[6]; patient 1, VGB, normal 70 ± 22, delay to plasma preparation <2 h", "result": "und*"}, {"measurement": "Taurine level", "setting": "[6]; patient 2, VGB, normal 70 ± 22, delay <2 h", "result": "und"}, {"measurement": "Taurine levels in VGB-treated epileptic infants (overall)", "setting": "[6]; six patients, VGB for at least six months", "result": "decreased"}]}
{"smiles": "NCCS(=O)(=O)O", "note": "[taurine, 2-aminoethanesulfonic acid]", "values": [{"measurement": "Plasma levels of taurine", "setting": "[1]; taurine 0.1M in drinking water of VGB-treated rats, n=7", "result": "increased above those of control animals"}, {"measurement": "GFAP immunostaining", "setting": "[2]; [9]", "result": "less extensive in animals receiving taurine supplementation"}, {"measurement": "Cone segment density", "setting": "[2]; VGB with taurine supplementation versus without, p<0.05", "result": "greater in the VGB-treated group with taurine supplementation"}, {"measurement": "Photopic ERG amplitude", "setting": "[3]; supplementation in addition to vigabatrin, versus vigabatrin alone", "result": "decreased less than in vigabatrin alone; also recorded: greater in VGB-treated animals receiving taurine supplementation; also recorded: smaller decrease in photopic ERG amplitude"}, {"measurement": "Photopic ERG amplitude", "setting": "[4]; [10]", "result": "no longer statistically significant; also recorded: smaller decrease in photopic ERG amplitude"}, {"measurement": "Photopic ERG amplitude", "setting": "[4]; supplementation in addition to vigabatrin, listed as Taurine", "result": "suppressed this decrease in photopic ERG amplitude"}, {"measurement": "Sprouting of bipolar cell dendrites", "setting": "[5]; VGB with taurine supplementation", "result": "completely suppressed"}, {"measurement": "Disorganisation of the outer nuclear layer (areas of retinal disorganisation)", "setting": "[5]; [9]", "result": "smaller areas of retinal disorganisation"}, {"measurement": "Density of cone outer and inner segments", "setting": "[5]; VGB with taurine supplementation, p<0.001", "result": "prevented this decrease in cone density"}]}
{"smiles": "Cc1ncc(COP(=O)(O)O)c(C=O)c1O", "note": "[vitamin B6, pyridoxal-5′-phosphate]", "values": [{"measurement": "Photopic ERG amplitude", "setting": "[4]; [10]", "result": "reduced the decrease in photopic ERG amplitude; also recorded: smaller decrease in photopic ERG than with vigabatrin alone"}]}
